Reference: the NIST ThermoML archive (doi:10.1016/j.jct.2016.01.012)
± gives the expanded uncertainty stated by the source.

Experiment: xn = mol fraction of the nth substance listed
Details: 100 kPa, Liquid; for mass density: Vibrating tube method; for viscosity: Falling or rolling sphere viscometry

CN(C)C(=[NH2+])N(C)C.c1c[n-]cn1 [1,1,3,3-tetramethylguanidinium imidazol-1-ide] + O
Details | mass density, 298.15 K [kg/m3] | mass density, 303.15 K [kg/m3] | mass density, 308.15 K [kg/m3] | mass density, 313.15 K [kg/m3] | viscosity, 303.15 K [mPa·s] | viscosity, 308.15 K [mPa·s] | viscosity, 313.15 K [mPa·s]
x1 = 0.0511 | – | 1016.67 ± 4.1 | 1013.28 ± 4.1 | 1009.78 ± 4 | 2.148 ± 0.092 | 1.854 ± 0.079 | 1.617 ± 0.069
x1 = 0.0991 | – | 1016.58 ± 4.1 | 1012.53 ± 4 | 1008.4 ± 4 | 3.601 ± 0.15 | 3.021 ± 0.12 | 2.592 ± 0.11
x1 = 0.207 | – | 1016.83 ± 4.1 | 1012.42 ± 4 | 1007.97 ± 4 | 6.045 ± 0.25 | 4.956 ± 0.2 | 4.126 ± 0.17
x1 = 0.3005 | 1015.51 ± 4.1 | 1011.06 ± 4 | 1006.59 ± 4 | 1002.09 ± 4 | 8.853 ± 0.36 | 7.201 ± 0.3 | 5.934 ± 0.24
x1 = 0.3834 | 1011.35 ± 4 | 1006.9 ± 4 | 1002.43 ± 4 | 997.94 ± 4 | 9.629 ± 0.4 | 7.806 ± 0.32 | 6.428 ± 0.26
x1 = 0.4978 | 1005.81 ± 4 | 1001.35 ± 4 | 996.88 ± 4 | 992.4 ± 4 | 9.809 ± 0.4 | 7.952 ± 0.33 | 6.542 ± 0.27
x1 = 0.6356 | 1001 ± 4 | 996.54 ± 4 | 992.07 ± 4 | 987.61 ± 4 | 9.023 ± 0.37 | 7.354 ± 0.3 | 6.07 ± 0.25
x1 = 0.8019 | 997.07 ± 4 | 992.72 ± 4 | 988.36 ± 4 | 983.97 ± 4 | 7.768 ± 0.32 | 6.42 ± 0.27 | 5.363 ± 0.22
x1 = 0.8984 | 994.72 ± 4 | 990.26 ± 4 | 985.81 ± 4 | 981.34 ± 4 | 6.72 ± 0.28 | 5.611 ± 0.23 | 4.756 ± 0.2
x1 = 1 | 992.8 ± 4 | 988.35 ± 4 | 983.9 ± 4 | 979.46 ± 4 | 6.044 ± 0.25 | 5.097 ± 0.21 | 4.358 ± 0.18
